Read-outs that look alike come from different tables or passages of the source.
Key:
tubulin [1] = system: T1, tubulin; test: Inhibition of tubulin assembly; format: biochemical; settings: concentration required to reduce assembly of tubulin by 50%
T1 construct: other: concentration required to reduce assembly of tubulin by 50%
Protocol: (§1) The following assays (1–5) were carried out as described in our paper (Woods, et al, British Journal of Cancer, 71, 705–711 (1995)). In addition to the cell lines described in this paper, other established human cell lines (K562, HUVEC, H460, BE, H529, and HT29) were used in the cytotoxicity/growth inhibition assay. • (1) Inhibition of tubulin assembly. The figure quoted is the concentration required to reduce assembly of tubulin by 50%. Tubulin assembly is monitored by light scatter/absorption at 350 nm.

A2780 = test: Cytotoxicity/growth inhibition assay (MTT), A2780; format: cell-based
Protocol: as §1
(§2) (2) Competition for the colchicine binding site on tubulin. The figure quoted represents the % of ^3H-colchicine bound following co-incubation of test compound and ^3H-cochicine with isolated tubulin. Where ester pro-drugs were used the experiments were carried out in the presence and absence of porcine liver esterase. • (3) Cytotoxicity/growth inhibition assay. This was carried out by the MTT assay. • (4) Permeability (shape-change) assay in endothelial cells. This was carried out using a method based on that of Watts et al. (Anticancer Res., 17, 71–75, (1997)). This involved the diffusion of a fluorescently labelled dextran through a barrier of endothelial cells (HUVEC) grown to confluence on a porous membrane. The effect of agents to alter the shape of these cells results in an increase in the permeability of the cells to the dye. The figure represents the increase in permeability over control cultures when drug is added (30 minutes, 1 mM.). • (5) Experiments to study the anti-vascular effects of these agents were carried out as described previously by our group. (Zhao et al, European Journal of Nuclear Medicine, 26, 231–238 (1999)). The anti-vascular effects of the agents were monitored by either positron emission tomography (PET) or by histologogical examination following treatment of mice bearing T50:80 murine breast tumours, or H460 human lung tumours. • (6) Anti-tumour efficacy of agents was determined in xenografts of H460 human lung cancer. Animals (n=5) were trated either with 5 daily injections and tumour size measured with time following treatment. • (7) The pharmacokinetic profile of agents was determined in mice following injection with drug. Blood was taken at various times following treatment and analysed by HPLC with UV detection. The HPLC conditions were isocratic using a 5 micron C18 BDS column (150×4.6) ad eluting with 75% MeOH in water with a detection wavelength of 290 nm. […] (AND(P)H:quinone oxidoreductace, EC 1.6.99.2). DT-diaphorase is an enzyme over-expressed in a number of human tumours. […] This two-electron reducing enzyme can be used to selectively activate prodrugs within cancers which over-express the enzyme.

[2] = system: colchicine binding site on tubulin; test: Competition for the colchicine binding site on tubulin
[3] = system: K562 human myelogeneous leukaemia cell line; test: Cytotoxicity/growth inhibition assay (MTT), K562; format: cell-based
Outline: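 Growth inhibition of P388 murine and K562 human leukaemia cells measured by MTT assay.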

A2780/ADR = test: Cytotoxicity/growth inhibition assay (MTT), A2780/ADR; format: cell-based
Protocol: as §1, §2

[4] = system: colchicine binding site on tubulin; test: Competition for the colchicine binding site on tubulin; settings: % of 3H-colchicine bound; for Colchicine displacement protein:drug 1:10 (with esterase): with porcine liver esterase
Protocol: as §2, with “This was carried out using a method based on that of Watts et al. (Anticancer Res., 17, 71–75, (1997)).” left out, “(Zhao et al, European Journal of Nuclear Medicine, 26, 231–238 (1999)).” left out, “detection.” for “detection. The HPLC conditions were isocratic using a 5 micron C18 BDS column (150×4.6) ad eluting with 75% MeOH in water with a detection wavelength of 290 nm.”

HUVEC = test: Growth inhibition studies using HUVEC; format: cell-based, human; settings: Homo sapiens, HUVEC
Protocol: as §1, §2

[5] = system: P388 murine leukaemia cell line; test: Cytotoxicity/growth inhibition assay (MTT), P388; format: cell-based; settings: Mus musculus, P388, MTT
Protocol: as §2, with “This was carried out using a method based on that of Watts et al. (Anticancer Res., 17, 71–75, (1997)).” left out, “(Zhao et al, European Journal of Nuclear Medicine, 26, 231–238 (1999)).” left out, “detection.” for “detection. The HPLC conditions were isocratic using a 5 micron C18 BDS column (150×4.6) ad eluting with 75% MeOH in water with a detection wavelength of 290 nm.”

tubulin [6] = test: MA IC50 (Tables 12-26, abbreviation not defined); format: biochemical
K562 = K562 cell cycle analysis; format: cell-based, human; settings: K562; for % of cells in G0–G1 / % of cells in G2-M / % of cells in S phase: of cells with DNA content = 2 n or >2 n
tubulin [7] = test: CD IC50 (Tables 12-26, abbreviation not defined); format: binding
[8] = Homo sapiens, A2780, read-out: A2780 IC50
[9] = Homo sapiens, K562, MTT, read-out: K562 IC50
[10] = Homo sapiens, A2780, read-out: IC50 (nM) A2780
[11] = Homo sapiens, K562, Table 22, read-out: MTT (K582) IC50

Row | SMILES | IC50 (tubulin [1]) | IC50 [3, 9] | IC50 (A2780/ADR; A2780 ADR) | IC50 (A2780; [10]) | Colchicine displacement protein:drug 1:10 (with esterase) [4] | Colchicine displacement protein:drug 1:10 (without esterase) [4] | IC50 (HUVEC) | IC50 (tubulin [6]) | % of cells with DNA content <2 n (K562) | % of cells in G0–G1 (K562) | % of cells in G2-M (K562) | % of cells in S phase (K562) | IC50 (tubulin [7]) | further results
1 | COc1cc(C=Cc2cc(F)c(OC)c(F)c2)cc(OC)c1OC [Compound 00-82] | 7.2 µM | 0.05 µM | – | – | – | – | – | – | – | – | – | – | – | IC50 (A2780; [8]): 60 nM; Colchicine % Inhibition [2]: 39.5%
2 | COc1ccc(C=Cc2cc(OC)c(OC)c(OC)c2)c(F)c1F [Compound 00-105] | > 100 µM | 0.02 µM | – | – | – | – | – | – | – | – | – | – | – | Colchicine % Inhibition [2]: 3.6%
3 | COc1ccc(C=Cc2cc(OC)c(OC)c(OC)c2)cc1OC(=O)C(Cc1ccccc1)NC(=O)OC(C)(C)C (centres unmarked) [Compound 33, Boc-Phenylalanine Combretastatin A-4] | 3.6 µM | – | 4 nM | 2.8 nM | 2% | 92% | – | – | – | – | – | – | – | –
4 | CCC(C)C(NC(=O)OC(C)(C)C)C(=O)Oc1cc(C=Cc2cc(OC)c(OC)c(OC)c2)ccc1OC (centres unmarked) [Compound 34] | 6.2 µM | – | > 60 nM | > 60 nM | 2% | 65% | – | – | – | – | – | – | – | –
5 | COc1ccc(/C=C\c2cc(OC)c(OC)c(OC)c2)cc1OC(=O)CNC(=O)OC(C)(C)C [Compound 35] | 7.5 µM | – | 5 nM | 4.3 nM | 4% | 65% | – | – | – | – | – | – | – | –
6 | COc1ccc(C=Cc2cc(OC)c(OC)c(OC)c2)cc1OC(=O)C(Cc1c[nH]c2ccccc12)NC(=O)OC(C)(C)C (centres unmarked) [Compound 36] | 4 µM | – | 2 nM | 1.7 nM | – | – | – | – | – | – | – | – | – | –
7 | COc1ccc(C=Cc2cc(OC)c(OC)c(OC)c2)cc1OC(=O)C(CCSC)NC(=O)OC(C)(C)C (centres unmarked) [Compound 37] | 6 µM | – | 9.1 nM | 6.7 nM | 2% | 88% | – | – | – | – | – | – | – | –
8 | COc1ccc(C=Cc2cc(OC)c(OC)c(OC)c2)cc1OC(=O)C(CC(C)C)NC(=O)OC(C)(C)C (centres unmarked) [Compound 38] | 7.8 µM | – | 27 nM | 14 nM | – | 72% | – | – | – | – | – | – | – | –
9 | COc1ccc(C=Cc2cc(OC)c(OC)c(OC)c2)cc1OC(=O)C(C)NC(=O)OC(C)(C)C (centres unmarked) [Compound 39] | 8 µM | – | 4.6 nM | 2.7 nM | 2% | 77% | – | – | – | – | – | – | – | –
10 | COc1ccc(/C=C\c2cc(OC)c(OC)c(OC)c2)cc1OC(=O)C(Cc1c[nH]cn1)NC(=O)OC(C)(C)C (centres unmarked) [Compound 40] | 7 µM | – | – | – | 4% | 2% | – | – | – | – | – | – | – | IC50 (A2780/ADR): 4.3 nM; IC50 (A2780; read-out: IC50 (nM) A2780): 2.2 nM
11 | COc1ccc(C=Cc2cc(OC)c(OC)c(OC)c2)cc1OC(=O)C1CCCN1C(=O)OC(C)(C)C (centres unmarked) [Compound 41] | 9 µM | – | 39 nM | 29 nM | 2% | 78% | – | – | – | – | – | – | – | –
12 | COc1ccc(/C=C\c2cc(OC)c(OC)c(OC)c2)cc1OC(=O)[C@@H](CCSC)NC(=O)OC(C)(C)C [Compound 42] | 3.5 µM | – | 2.9 nM | 2.9 nM | 2% | – | – | – | – | – | – | – | – | –
13 | COc1ccc(/C=C\c2cc(OC)c(OC)c(OC)c2)cc1OC(=O)[C@@H](Cc1c[nH]c2ccccc12)NC(=O)OC(C)(C)C [Compound 43] | 3 µM | – | 3.8 nM | 3.3 nM | 2% | – | – | – | – | – | – | – | – | –
14 | COc1ccc(/C=C\c2cc(OC)c(OC)c(OC)c2)cc1OC(=O)C(Cc1ccc(O)cc1)NC(=O)OC(C)(C)C (centres unmarked) [Compound 44] | – | – | – | – | – | – | – | – | – | – | – | – | – | IC50 (A2780/ADR): 6.4 nM; IC50 (A2780; read-out: IC50 (nM) A2780): 4.5 nM
15 | COc1cc(C=Cc2ccc(N(C)C)cc2)cc(OC)c1OC [Compound 97-65] | 100 µM | – | – | – | – | – | 0.35 µM | – | – | – | – | – | – | IC50 (A2780; [8]): 95 nM; IC50 [5]: 0.18 µM
16 | COc1ccc(/C=C\c2cc(C)c(C)c(C)c2)cc1 [Compound 117] | – | 0.31 µM | – | – | – | – | > 1 µM | 0.65 µM | 15% | 3% | 87% | 10% | > 25 µM | –
17 | COc1ccc(/C=C\c2cc(C)c(C)c(C)c2)cc1F [Compound 120] | – | 0.14 µM | – | – | – | – | 0.46 µM | 0.7 µM | 23% | 6% | 77% | 17% | 10 µM | –
18 | COc1ccc(/C=C\c2cc(C)c(C)c(C)c2)cc1O [Compound 133] | – | – | – | – | – | – | 0.05 µM | 0.12 µM | 6% | 3% | 91% | 6% | 10 µM | IC50 ([3]; MTT, read-out: K562 IC50): 0.02 µM
19 | COc1ccc(C=C(C)c2cc(OC)c(OC)c(OC)c2)cc1O [Compound 210] | – | 0.04 µM | – | – | – | – | 0.09 µM | 0.13 µM | 23% | 5% | 73% | 22% | 6 µM | IC50 [3, 11]: 0.04 µM
20 | COc1ccc(C=C(C)c2cc(OC)c(OC)c(OC)c2)cc1 [Compound 213] | – | – | – | – | – | – | 0.35 µM | 1.3 µM | 23% | 5% | 73% | 21% | > 25 µM | IC50 [3, 11]: 0.1 µM
21 | CCC(=Cc1ccc(OC)c(O)c1)c1cc(OC)c(OC)c(OC)c1 [Compound 219] | – | – | – | – | – | – | 0.22 µM | 0.13 µM | 24% | 7% | 74% | 19% | > 25 µM | IC50 [3, 11]: 0.12 µM
22 | CCOc1cc(C=Cc2ccc(OC)c(F)c2)cc(OCC)c1OCC [Compound 251] | – | 0.044 µM | – | – | – | – | 0.19 µM | 1.25 µM | 24% | 7% | 75% | 18% | > 25 µM | –
23 | CCOc1cc(C=Cc2ccc(OC)c(O)c2)cc(OCC)c1OCC [Compound 253] | – | 0.018 µM | – | – | – | – | 0.05 µM | 0.5 µM | 4% | 3% | 92% | 6% | 15.5 µM | –

— US7220784B2, “Substituted stilbenes and their reactions” (priority 2000, dated 2007)
